From US5849755A, “3-amidochromanylsulfonyl(thio)ureas, processes for their preparation, their use, and pharmaceutical preparations comprising them” (Hoechst Aktiengesellschaft, priority 1996, dated 1998)

Columns and labels:
[1] = tested on: papillary muscle of the guinea pig; experiment: Test 1: Duration of the action potential of the papillary muscle of the guinea pig (APD95, shortened by HOE 234); type: cell-based; details: HOE 234 1 μg/ml in bath, 30 minutes after addition, mean of n = 3, control with HOE 234 alone <40
From the text: Test 1: Duration of the action potential of the papillary muscle of the guinea pig
ATP deficiency states such as are observed in the cardiac muscle cell during ischemia lead to a shortening of the duration of the action potential. They are regarded as one of the causes of so-called "re-entry arrhythmias," which can cause sudden cardiac death. The opening of ATP-sensitive potassium channels as a result of the fall in ATP is regarded as the cause of this.
A standard microelectrode technique was employed to measure the action potential. For this, guinea pigs of both sexes were sacrificed by a blow to the head, the hearts were removed and the papillary muscles were separated out and suspended in an organ bath. The organ bath was flushed with Ringer's solution (0.9% NaCl, 0.048% KCl, 0.024% CaCl2, 0.02% NaHCO3 and 0.1% glucose) and gassed with a mixture of 95% oxygen and 5% carbon dioxide at a temperature of 36° C. The muscle was stimulated via an electrode with rectangular pulses of 1 V and 1 ms duration and a frequency of 2 Hz. The action potential was derived through a glass microelectrode which was inserted intracellularly and filled with 3M KCl solution, and recorded. The substances to be tested were added to the Ringer's solution in a concentration of 2×10^-6 mol per liter or 2×10^-5 mol per liter. The action potential was amplified with a Hugo Sachs amplifier and shown on an oscilloscope. The duration of the action potential in milliseconds (ms) was determined at a degree of repolarization of 95% (APD95). Shortenings of the action potential were induced by addition of a solution of the potassium channel opener HOE 234 (Rilmakalim) (W. Linz, E. Klaus, U. Albus, R. H. A. Becker, D. Mania, H. C. Englert, B. A. Scholkens, Arzneimittelforschung/Drug Research, Volume 42 (II), 1992, 1180-1185), a concentration of HOE 234 in the bath solution of 1 μg/ml being established. The test substances were added to the bath solution as stock solutions in propanediol. The values stated are based on measurements 30 minutes after the addition. As a control, the APD95 value was determined in the presence of HOE 234 and in the absence of the test substance.
The measurement values (mean values from n experiments) are followed by the corresponding blank values in parentheses. The blank values are the APD95 values which were measured at the start of the experiment without HOE 234 and test substance in the Ringer's solution. The values obtained show the normalizing effect of the compounds according to the invention on a shortened duration of the action potential.

RINm5F cells = experiment: Test 2: Membrane potential on isolated β cells (RINm5F, whole cell patch clamp); type: cell-based; details: diazoxide 100 μmol/l in bath, 34°±1° C.
From the text: Test 2: Membrane potential on isolated β cells The action mechanism of hypoglycemic sulfonylureas is understood in principle. The β cells of the pancreas are the target organ of sulfonylureas, where they bring about a release of the hypoglycemic hormone insulin by influencing the electrical potential of the cell membrane. A hypoglycemic sulfonylurea, for example glibenclamide, has the effect of depolarizing the cell membrane, which leads to an increased inflow of calcium ions and, as a consequence thereof, to the release of insulin. The extent AU of this depolarization of the cell membrane caused by the substances according to the invention was determined on insulin-secreting RINm5F cells, a pancreas tumor cell line. The activity of a compound in this model predicts the extent of the hypoglycemic potential of this compound. Cell cultures of RINm5F cells: RINm5F cells were cultured at 37° C. in RPMI 1640 culture medium (Flow) to which 11 mM glucose, 10% (volume/volume) fetal calf serum, 2 mM glutamine and 50 μg/ml of gentamycin were added. The cells were sown on Petri dishes every 2 to 3 days and kept at a temperature of 37° C. in a moistened atmosphere of […] and 5% CO2. For the investigations, the cells were isolated by incubation (about 3 minutes) in a Ca^2+ -free medium which comprised 0.25% trypsin. Measurement method: Isolated RINm5F cells were introduced into a Plexiglas chamber on an inverse microscope which was equipped with a differential interference contrast lens. Under visual control (400-fold magnification),a fire-polished micropipette with an opening diameter of about 1 μm was placed on the cell with the aid of a micromanipulator. By applying a slight reduced pressure to the inside of the patch pipette, a high electrical seal was initially established between the glass and the cell membrane. By increasing the reduced pressure, the membrane patch under the […] pipette was then broken open. In this whole cell configuration,the cell potential was recorded with the aid of a patch clamp amplifier (L/M EPC 7, List, Darmstadt) and the whole cell current was measured by applying a voltage ramp. […] Stock solutions (concentration 100 mmol/l) of the test substances in dimethyl sulfoxide (DMSO) and corresponding dilutions in NaCl solution were prepared. DMSO alone had no effect on the cell potential. To stabilize the cell potential, diazoxide (100 μmol/l), an opener of ATP-sensitive K^+ channels, was added to the bath solution in all experiments. All experiments were carried out at 34°±1° C. The following values ΔU (changes in the cell potentials caused by the addition of the test substances) were measured. The control values in parentheses are the cell potentials U before the addition of the test substances. For comparison the values obtained in this test with glibenclamide, a typical hypoglycemic benzenesulfonylurea, are given.

SMILES	APD95 -HOE 234 ([1]; test substance 20 μmol/l) [ms]	ΔU (mV), change in the cell potential caused by the addition of the test substance (RINm5F cells; 1 μmol/l) [mV]	ΔU (mV), change in the cell potential caused by the addition of the test substance (RINm5F cells; 10 μmol/l) [mV]	APD95 -HOE 234 ([1]; test substance 2 μmol/l) [ms]
CNC(=O)NS(=O)(=O)c1cc2c(cc1OC)OCC(NC(=O)c1cc(Cl)ccc1OC)C2 (stereo not shown) [Example 1, 3-(5-Chloro-2-methoxybenzamido)-6-(methylaminocarbonylaminosulfonyl)-7-methoxychroman]	157 ± 36	6	24	–
COc1ccc(F)cc1C(=O)NC1Cc2cc(S(=O)(=O)NC(=S)NC(C)C)c(OC)cc2OC1(C)C (stereo not shown) [Example 21, 3-(5-Fluoro-2-methoxybenzamido)-2,2-dimethyl-6-(isopropylaminothiocarbonylaminosulfonyl)-7-methoxychroman]	–	–	–	67 ± 10
CNC(=S)NS(=O)(=O)c1cc2c(cc1OC)OCC(NC(=O)c1cc(Cl)ccc1OC)C2 (stereo not shown) [Example 6]	–	3	–	145 ± 19.1
COc1ccc(Cl)cc1C(=O)NCCc1ccc(S(=O)(=O)NC(=O)NC2CCCCC2)cc1 [Glibenclamide, glibenclamide, reference compound]	–	47	46	–
CCNC(=S)NS(=O)(=O)c1cc2c(cc1OC)OCC(NC(=O)c1cc(Cl)ccc1OC)C2 (stereo not shown) [Example 7, 3-(5-Chloro-2-methoxybenzamido)-6-(ethylaminothiocarbonylaminosulfonyl)-7-methoxychroman]	–	29	–	130 ± 28.1
CCCNC(=O)NS(=O)(=O)c1cc2c(cc1OC)OCC(NC(=O)c1cc(Cl)ccc1OC)C2 (stereo not shown) [Example 3, 3-(5-Chloro-2-methoxybenzamido)-6-(n-propylamino-carbonylaminosulfonyl)-7-methoxychroman]	134 ± 9	18	23	–
